Measurements taken from patent publication US20100022457A1 (Bristol-Myers Squibb Company, priority 2006, published 2010).
Like-named read-outs stand apart in the source and are kept apart here. Where a SMILES comes first, the peptide text is derived from it. [ ]: non-standard residue; d: D form. The star is where a group is joined. ξ: configuration not given here. Ala(6-(2-MePh)pyridin-3-yl) = Cc1ccccc1-c1ccc(C[C@H](N)C(=O)O)cn1; Phe(4-(2-Et-4-HO-Ph)) = CCc1cc(O)ccc1-c1ccc(C[C@H](N)C(=O)O)cc1; Bip(2'-Et-4'-OMe) = CCc1cc(OC)ccc1-c1ccc(C[C@H](N)C(=O)O)cc1; Lactoyl(3-(imidazol-4-yl)) = O=C([C@@H](O)Cc1c[nH]cn1)*; Bip(2'-Me) = Cc1ccccc1-c1ccc(C[C@H](N)C(=O)O)cc1; d(αMePhe(2-F)) = C[C@@](N)(Cc1ccccc1F)C(=O)O; αMePhe(2-F) = C[C@](N)(Cc1ccccc1F)C(=O)O; ξαMePhe(2-F) = CC(N)(Cc1ccccc1F)C(=O)O; Thr(3ξ) = CC(O)[C@H](N)C(=O)O; ξαMeP = CC1(C(=O)O)CCCN1; Aib = CC(C)(N)C(=O)O; Moc = COC(=O)*

What was measured:
[1] = Dog pharmacokinetic study (intravenous and subcutaneous, 67 μg/kg); format: in vivo; conditions: for half-life: read-out: t½ (converted)
Procedure: The pharmacokinetic parameters of the compound of SEQ ID NO:9 were determined in male beagle dogs (n=4, 14±1 kg). Following an overnight fast, each animal received the compound of SEQ ID NO:9 either as an intravenous bolus via femoral vein (67 μg/kg) or by subcutaneous injection given at near the shoulder blades (67 μg/kg). Each animal received both intravenous and subcutaneous doses with a one-week washout between doses following a crossover design. […] Serial blood samples were collected in EDTA-containing microcentrifuge tubes at predose, 0.083, 0.25, 0.5, 0.75, 1, 2, 4, 6, 8, 24, and 30 hours post-dose after intravenous administration; at predose, 0.25, 0.5, 0.75, 1, 2, 4, 6, 8, 24, and 30 hours post-dose after subcutaneous administration. Approximately 0.3 mL of blood was collected at each time point. Blood samples were immediately centrifuged at 4° C. The obtained plasma was frozen with dry ice and stored at −20° C. Plasma drug levels were determined using the LC-MS/MS assay described above.
Plasma samples from in vivo dog study were prepared for analysis by precipitating plasma proteins with two volumes of acetonitrile containing an internal standard. The samples were vortex mixed and removed the precipitated proteins by centrifugation. The resulting supernatants were transferred to a 96-well plate and 10 μL were injected for analysis. Samples were prepared with the Packard Multiprobe II and Quadra 96 Liquid Handling System.
The HPLC system consisted of two Shimadzu LC10AD pumps (Columbia, Md.), a CTC PAL autosampler (Leap Technologies, Switzerland). The column used was a YMC Hydrosphere C18 (2.0×50 mm, 3 μm) (YMC, Inc., Milford, Mass.). The column temperature was maintained at 50° C. and the flow rate was 0.3 mL/minute. The mobile phase A consisted of 10 mM ammonium formate and 0.1% formic acid in water and mobile phase B consisted of 0.1% formic acid in acetonitrile. The initial mobile phase composition was 5% B, and remained at 5% B for one minute to equilibrate the column. The composition was ramped to 95% B over two minutes and held there for one additional minute. The mobile phase was then returned to initial conditions in one minute. Total analysis time was five minutes. A switching valve was used. The eluents between 0-1 minute were diverted to the waste.
The HPLC was interfaced to a Sciex API 4000 mass spectrometer, (Applied Biosystems, Foster City, Calif.) and was equipped with a TurboIonspray ionization source. Ultra high purity nitrogen was used as the nebulizing and turbo gas. The temperature of turbo gas was set at 300° C. and the interface heater was set at 60° C. Data acquisition utilized selected reaction monitoring (SRM). Ions representing the (M+2H)^2+ species for the compound of SEQ ID NO:9, and (M+2H)^2+ for BMS-501143 (IS) were selected in Q1 and were collisionally dissociated with high purity nitrogen at a pressure of 3.5×10^−3 torr to form specific product ions which were subsequently monitored by Q3.
The standard curve concentrations, ranging from 1 to 1000 nM and from 4 to 5000 nM, were used for the in vivo samples obtained from low and high doses, respectively. The curves were fitted with a quadratic regression weighted by reciprocal […]. Standards were analyzed in duplicate. Quality control (QC) samples, prepared in blank matrix at the same concentrations as the standard were also analyzed in each analytical set. For the compound of SEQ ID NO:9, the calculated concentrations of more than 80% of the QCs were within 20% of nominal concentration, indicating acceptable assay performance.
The compound of SEQ ID NO:9 plasma concentration vs. time data were analyzed by noncompartmental methods using the […]™ software program. The Cmax and Tmax values were recorded directly from experimental observations. The AUC0-n and AUCtot values were calculated using a combination of linear and log trapezoidal summations. […]

C57BL/6J-ob/ob mice = assay: Intraperitoneal glucose tolerance test (ipGTT) in ob/ob mice after subcutaneous injection; format: in vivo, mouse; conditions: for Potency in ob/ob mice ED50: sc injection, plasma glucose AUC in ipGTT; for effect on postprandial plasma glucose: sc in ob/ob mice, between 0 and 180 or 210 minutes
Procedure: Peptides were dissolved in an appropriate vehicle at a concentration in nmol/ml equivalent to the dose that was to be administered in nmol/kg so that each mouse would receive the same volume/weight of dosing solution. Male C57BL/6J-ob/ob mice (10 weeks old) were randomized into groups of 6 mice per group based on fed plasma glucose and body weight. After an overnight fast, mice were weighed and placed in the experimental lab. After 30 min in the environment, the mice were bled via tail tip at −30 min and immediately injected subcutaneously (sc) with vehicle or the peptide dissolved in vehicle (0.1 ml solution/100 g body weight). At time 0 the mice were bled and then injected intraperitoneally with 50% glucose (2 g/kg) to initiate the intraperitoneal glucose tolerance test (ipGTT). The mice were bled 30, 60, 120 and 180 min after the glucose injection. Blood samples were drawn into potassium EDTA, placed on ice during the study and subsequently centrifuged for 10 min at 3000 rpm at 4° C. Plasma samples were diluted 1-fold for glucose analysis in the Cobas System. Another 5 μl plasma sample was diluted 5-fold with 20 μl of Sample Diluent (Insulin ELISA assay kit, Crystal Chem Inc.) and stored at −20° C. for subsequent analysis using the Ultra Sensitive Mouse Insulin ELISA kit (Crystal Chem Inc.).

[2] = Exposure during ipGTT in ob/ob mice; format: in vivo, mouse; conditions: sc
[3] = Table I, vehicle propylene glycol/pH 7.4 phosphate buffer (1:1)
[4] = Table II, vehicle propylene glycol/pH 7.4 phosphate buffer (1:1)
[5] = Table I, vehicle 0.2 M Tris buffer (pH 8.0)
[6] = male, beagle, plasma, 67 ug/kg, dog, intravenous 67 μg/kg, Tables 6B/6C, vehicle not given
[7] = male, beagle, plasma, sc, 67 ug/kg, dog, subcutaneous 67 μg/kg, Tables 6B/6C (Table I footnote: 0.2 M Tris buffer pH 8.0)

Structure (SMILES): CCc1cc(OC)ccc1-c1ccc(C[C@H](NC(=O)[C@H](CC(=O)O)NC(=O)[C@H](CO)NC(=O)[C@@H](NC(=O)[C@@](C)(Cc2ccccc2F)NC(=O)[C@@H](NC(=O)CNC(=O)[C@H](CCC(=O)O)NC(=O)C(C)(C)NC(=O)[C@@H](N)Cc2c[nH]cn2)C(C)O)C(C)O)C(=O)N[C@@H](Cc2ccc(-c3ccccc3C)cc2)C(N)=O)cc1 (stereo partly shown) [Compound I, reference compound] (H-H[Aib]EG[Thr(3ξ)][d(αMePhe(2-F))][Thr(3ξ)]SD[Bip(2'-Et-4'-OMe)][Bip(2'-Me)]-NH2)
- Exposure in dogs (sc@67 μg/kg) [1, 3]: 89 nM·h
- Exposure in dogs (sc@67 μg/kg) [1, 4]: 89 nM·h
- Potency in ob/ob mice: % AUC Reduction in Plasma Glucose in an IP Glucose Tolerance Test after SC Injection of Compound (C57BL/6J-ob/ob mice; 10 nmol/kg sc, relative to vehicle-treated group): −15% (p = 0.247, NS)
- Potency in ob/ob mice ED50 (C57BL/6J-ob/ob mice): 50 nmol/kg
- Exposure/dose during ipGTT in ob/ob mice [2]: 22 nM*h/nmol/kg

Structure (SMILES): CCc1cc(OC)ccc1-c1ccc(C[C@H](NC(=O)[C@H](CC(=O)O)NC(=O)[C@H](CO)NC(=O)[C@@H](NC(=O)C(C)(Cc2ccccc2F)NC(=O)[C@@H](NC(=O)CNC(=O)[C@H](CCC(=O)O)NC(=O)C2(C)CCCN2C(=O)[C@@H](N)Cc2c[nH]cn2)[C@@H](C)O)[C@@H](C)O)C(=O)N[C@@H](Cc2ccc(-c3ccccc3C)nc2)C(N)=O)cc1 (stereo partly shown) [SEQ ID NO: 118] (H-H[ξαMeP]EGT[ξαMePhe(2-F)]TSD[Bip(2'-Et-4'-OMe)][Ala(6-(2-MePh)pyridin-3-yl)]-NH2)
- Exposure in dogs (sc@67 μg/kg) [1, 3]: 4020 nM·h
- plasma glucose AUC decrease (C57BL/6J-ob/ob mice; 30 nmol/kg sc, ipGTT ob/ob mice): 81%
- effect on postprandial plasma glucose (C57BL/6J-ob/ob mice): statistically significant decrease
- Potency in ob/ob mice ED50 (C57BL/6J-ob/ob mice): 2.5 nmol/kg
- Exposure/dose during ipGTT in ob/ob mice [2]: 4.4 nM*h/nmol/kg

Structure (SMILES): CCc1cc(OC)ccc1-c1ccc(C[C@H](NC(=O)[C@H](CC(=O)O)NC(=O)[C@H](CO)NC(=O)[C@@H](NC(=O)[C@](C)(Cc2ccccc2F)NC(=O)[C@@H](NC(=O)CNC(=O)[C@H](CCC(=O)O)NC(=O)[C@@H](C)NC(=O)[C@@H](N)Cc2c[nH]cn2)[C@@H](C)O)[C@@H](C)O)C(=O)N[C@@H](Cc2ccc(-c3ccccc3C)nc2)C(N)=O)cc1 [SEQ ID NO: 149] (H-H[dA]EGT[αMePhe(2-F)]TSD[Bip(2'-Et-4'-OMe)][Ala(6-(2-MePh)pyridin-3-yl)]-NH2)
- Exposure in dogs (sc@67 μg/kg) [1, 4]: 940 nM·h

Structure (SMILES): CCc1cc(OC)ccc1-c1ccc(C[C@H](NC(=O)[C@H](CC(=O)O)NC(=O)[C@H](Cc2c[nH]cn2)NC(=O)[C@@H](NC(=O)C(C)(Cc2ccccc2F)NC(=O)[C@@H](NC(=O)CNC(=O)[C@H](CCC(=O)O)NC(=O)C2(C)CCCN2C(=O)[C@@H](O)Cc2c[nH]cn2)[C@@H](C)O)[C@@H](C)O)C(=O)N[C@@H](Cc2ccc(-c3ccccc3C)nc2)C(N)=O)cc1 (stereo partly shown) [SEQ ID NO: 151] ({Lactoyl(3-(imidazol-4-yl))}-[ξαMeP]EGT[ξαMePhe(2-F)]THD[Bip(2'-Et-4'-OMe)][Ala(6-(2-MePh)pyridin-3-yl)]-NH2)
- Exposure in dogs (sc@67 μg/kg) [1, 5]: 1566 nM·h
- AUC [1, 6]: 1.52 ± 0.424 µM·h
- MRT [1, 6]: 4.4 ± 0.1 h
- clearance ([1]; male, beagle, plasma, 67 ug/kg, dog, intravenous 67 μg/kg, Tables 6B/6C, vehicle not given, read-out: CLp): 0.49 ± 0.16 mL/min/kg
- Vd ([1]; male, beagle, plasma, 67 ug/kg, dog, intravenous 67 μg/kg, Tables 6B/6C, vehicle not given, read-out: Vss): 0.13 ± 0.05 L/kg
- half-life [1, 6]: 240 ± 12 min
- AUC [1, 7]: 1.57 ± 0.235 µM·h
- MRT [1, 7]: 5.8 ± 1 h
- Tmax [1, 7]: 1.8 ± 0.5 h
- bioavailability [1, 7]: 110 ± 41%
- Cmax ([1]; male, beagle, plasma, sc, 67 ug/kg, dog, subcutaneous 67 μg/kg, Tables 6B/6C (Table I footnote: 0.2 M Tris buffer pH 8.0), read-out: Cmax): 252 ± 15 nM
- half-life [1, 7]: 264 ± 84 min
- effect on postprandial plasma glucose (C57BL/6J-ob/ob mice): statistically significant decrease
- Exposure/dose during ipGTT in ob/ob mice [2]: 16 nM*h/nmol/kg

Structure (SMILES): CCc1cc(O)ccc1-c1ccc(C[C@H](NC(=O)[C@H](CC(=O)O)NC(=O)[C@H](CO)NC(=O)[C@@H](NC(=O)C(C)(Cc2ccccc2F)NC(=O)[C@@H](NC(=O)CNC(=O)[C@H](CCC(=O)O)NC(=O)C2(C)CCCN2C(=O)[C@H](Cc2c[nH]cn2)NC(=O)OC)[C@@H](C)O)[C@@H](C)O)C(=O)N[C@@H](Cc2ccc(-c3ccccc3C)nc2)C(N)=O)cc1 (stereo partly shown) [SEQ ID NO: 158] (Moc-H[ξαMeP]EGT[ξαMePhe(2-F)]TSD[Phe(4-(2-Et-4-HO-Ph))][Ala(6-(2-MePh)pyridin-3-yl)]-NH2)
- Exposure in dogs (sc@67 μg/kg) [1, 5]: 1467 nM·h
- effect on postprandial plasma glucose (C57BL/6J-ob/ob mice): statistically significant decrease
- Exposure/dose during ipGTT in ob/ob mice [2]: 11 nM*h/nmol/kg
